Laboratory results reported in patent publication US20260297542A1, “HERBICIDE RESISTANT PLANTS” (SYNGENTA CROP PROTECTION AG, priority 2023, published 2026).
Changes are numbered by the printed parent chain.

How the values were obtained:
Experiment in all cases: E. coli hemG growth inhibition by herbicide, AtPPO1 variant
Format in all cases: cell-based
Settings in all cases: read-out: percentage growth inhibition
AtPPO1 V127L = target: T1, AtPPO1 V127L (Arabidopsis thaliana, UniProt P55826, V127L)
T1 construct: expressed in transfected cells; host or cells: E. coli BL21(DE3) hemG (hemG replaced by CmR), pET24a plasmid
T1 sequence (P55826 35-537 V127L): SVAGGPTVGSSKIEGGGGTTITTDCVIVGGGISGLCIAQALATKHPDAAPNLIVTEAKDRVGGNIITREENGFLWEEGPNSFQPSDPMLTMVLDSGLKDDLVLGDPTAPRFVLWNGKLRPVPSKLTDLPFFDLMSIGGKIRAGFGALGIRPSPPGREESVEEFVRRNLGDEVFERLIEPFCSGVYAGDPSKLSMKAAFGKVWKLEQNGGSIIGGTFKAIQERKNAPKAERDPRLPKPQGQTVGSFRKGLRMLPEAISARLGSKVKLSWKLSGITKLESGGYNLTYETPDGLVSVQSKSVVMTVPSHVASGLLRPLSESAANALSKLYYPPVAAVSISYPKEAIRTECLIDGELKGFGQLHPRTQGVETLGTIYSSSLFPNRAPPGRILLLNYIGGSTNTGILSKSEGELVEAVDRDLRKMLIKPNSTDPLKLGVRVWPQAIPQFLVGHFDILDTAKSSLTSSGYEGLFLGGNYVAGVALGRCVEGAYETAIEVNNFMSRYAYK
Summary of the method: (§1)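 E. coli BL21(DE3) ΔhemG::CmR complemented by AtPPO1 variants (pET24a, T7, E. coli codon-optimised); TB + 0.1 mM IPTG, 1:100 inoculum; 6.25 ppm herbicide 0/E or 0.78 ppm herbicide B vs DMSO; 24 h, 37° C, 250 rpm; OD600 at 24 h → % growth inhibition.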

AtPPO1 D448H = target: T2, AtPPO1 D448H (Arabidopsis thaliana, UniProt P55826, D448H)
T2 construct: expressed in transfected cells; host or cells: E. coli BL21(DE3) hemG (pET24a, T7 promoter)
T2 sequence (P55826 35-537 D448H): T1 sequence (P55826 35-537 V127L) with L93V, D414H
Summary of the method: as §1

AtPPO1 V511L = target: T3, AtPPO1 V511L (Arabidopsis thaliana, UniProt P55826, V511L)
T3 construct: expressed in transfected cells; host or cells: E. coli BL21(DE3) hemG, pET24a plasmid
T3 sequence (P55826 35-537 V511L): T1 sequence (P55826 35-537 V127L) with L93V, V477L
Summary of the method: as §1

AtPPO1 L479N = target: T4, AtPPO1 L479N (Arabidopsis thaliana, UniProt P55826, L479N)
T4 construct: expressed in transfected cells; host or cells: E. coli BL21(DE3) hemG, pET24a plasmid
T4 sequence (P55826 35-537 L479N): T1 sequence (P55826 35-537 V127L) with L93V, L445N
Summary of the method: as §1

`C#CCN1C(=O)C(F)(F)Oc2cc(F)c(-n3c(=O)n(C)c(=S)n(C)c3=O)cc21` [Herbicide B, trifludimoxazin] showed an inhibition at 0.78 ppm (AtPPO1 V127L) of 31%, an inhibition at 0.78 ppm (AtPPO1 D448H) of 31% and an inhibition at 0.78 ppm (AtPPO1 V511L) of 18%. For the same compound, the inhibition at 0.78 ppm (AtPPO1 L479N) was 23%.
`CCOC(=O)[C@]1(C)CC(c2cc(-n3c(=O)n(C)c(=S)n(C)c3=O)c(F)cc2Cl)=NO1` [Herbicide D, ethyl (5S)-3-[2-chloro-5-(3,5-dimethyl-2,6-dioxo-4-thioxo-1,3,5-triazinan-1-yl)-4-fluoro-phenyl]-5-methyl-4H-isoxazole-5-carboxylate] was tested, and the inhibition at 6.25 ppm (AtPPO1 V127L) was 29%, the inhibition at 6.25 ppm (AtPPO1 D448H) was 26% and the inhibition at 6.25 ppm (AtPPO1 V511L) was 18%. The inhibition at 6.25 ppm (AtPPO1 L479N) was 3%.
Work on `CC(C)N(C)S(=O)(=O)NC(=O)c1cc(-n2c(=O)cc(C(F)(F)F)n(C)c2=O)c(F)cc1Cl` [Herbicide E, saflufenacil] yielded an inhibition at 6.25 ppm (AtPPO1 V127L) of 65%, an inhibition at 6.25 ppm (AtPPO1 D448H) of 57% and an inhibition at 6.25 ppm (AtPPO1 V511L) of 46%. For the same compound, the inhibition at 6.25 ppm (AtPPO1 L479N) was 31%.
